Test results reported in article PMC12155096 (International Journal of Molecular Sciences, 2025).
Where a name gives a salt, the structure may show the parent alone. Read-outs that look alike come from different tables or passages of the source.

How the values were obtained:
CYP3A4 [1] = target: T1, CYP3A4 (Homo sapiens, UniProt P08684); experiment: biochemical
human CYP1A2 [2] = target: T2, human CYP1A2 (Homo sapiens, UniProt P05177); details: for CYP1A2 Efficacy (in parenthesis): human
T2 sequence (P05177 1-516): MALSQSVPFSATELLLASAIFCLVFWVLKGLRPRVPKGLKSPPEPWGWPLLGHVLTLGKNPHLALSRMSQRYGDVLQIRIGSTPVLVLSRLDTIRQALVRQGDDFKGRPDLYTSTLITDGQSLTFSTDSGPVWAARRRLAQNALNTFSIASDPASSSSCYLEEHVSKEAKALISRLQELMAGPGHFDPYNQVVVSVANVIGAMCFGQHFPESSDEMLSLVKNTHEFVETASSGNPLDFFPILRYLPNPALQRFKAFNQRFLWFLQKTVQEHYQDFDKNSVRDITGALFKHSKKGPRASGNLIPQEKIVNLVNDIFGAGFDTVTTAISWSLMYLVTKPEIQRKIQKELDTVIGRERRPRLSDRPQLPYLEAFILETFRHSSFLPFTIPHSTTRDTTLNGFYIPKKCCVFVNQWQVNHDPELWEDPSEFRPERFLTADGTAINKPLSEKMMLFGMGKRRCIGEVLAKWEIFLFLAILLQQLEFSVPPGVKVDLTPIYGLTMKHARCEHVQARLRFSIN

human CYP2C19 [3] = target: T3, human CYP2C19 (Homo sapiens, UniProt P33261); details: for CYP2C19 Efficacy (in parenthesis): human
T3 sequence (P33261 whole entry): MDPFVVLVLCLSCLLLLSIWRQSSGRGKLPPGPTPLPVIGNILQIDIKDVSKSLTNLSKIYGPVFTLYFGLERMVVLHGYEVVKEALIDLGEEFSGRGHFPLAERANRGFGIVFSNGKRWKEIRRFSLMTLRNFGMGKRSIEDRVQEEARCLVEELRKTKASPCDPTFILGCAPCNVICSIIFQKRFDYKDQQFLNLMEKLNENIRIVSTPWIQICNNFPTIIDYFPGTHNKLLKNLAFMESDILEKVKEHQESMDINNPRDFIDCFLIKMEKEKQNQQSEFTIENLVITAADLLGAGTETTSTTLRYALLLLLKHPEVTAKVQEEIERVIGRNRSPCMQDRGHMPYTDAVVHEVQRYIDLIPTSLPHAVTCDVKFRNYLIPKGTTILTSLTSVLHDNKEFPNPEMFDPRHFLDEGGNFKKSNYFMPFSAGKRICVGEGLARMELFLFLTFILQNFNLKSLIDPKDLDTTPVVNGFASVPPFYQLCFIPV

human CYP2D6 [4] = target: T4, human CYP2D6 (Homo sapiens, UniProt P10635); details: for CYP2D6 Efficacy (in parenthesis): human
T4 sequence (P10635 whole entry): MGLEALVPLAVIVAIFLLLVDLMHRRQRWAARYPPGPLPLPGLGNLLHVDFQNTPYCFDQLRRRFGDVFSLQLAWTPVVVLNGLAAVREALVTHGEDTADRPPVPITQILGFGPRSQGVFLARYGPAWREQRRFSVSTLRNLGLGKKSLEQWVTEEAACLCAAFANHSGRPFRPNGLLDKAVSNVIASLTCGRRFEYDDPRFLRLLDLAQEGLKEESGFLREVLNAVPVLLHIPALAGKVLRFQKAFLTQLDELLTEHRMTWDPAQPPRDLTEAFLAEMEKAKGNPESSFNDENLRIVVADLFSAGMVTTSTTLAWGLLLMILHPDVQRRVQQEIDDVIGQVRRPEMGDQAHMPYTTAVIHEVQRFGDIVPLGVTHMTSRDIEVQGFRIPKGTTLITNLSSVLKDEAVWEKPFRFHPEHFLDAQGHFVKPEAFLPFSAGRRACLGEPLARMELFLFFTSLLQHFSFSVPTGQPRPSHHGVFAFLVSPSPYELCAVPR

human CYP2C9 [5] = target: T5, human CYP2C9 (Homo sapiens, UniProt P11712); experiment: biochemical; details: for IC50: CYP2C9 IC50 (half-maximal inhibitory concentration)
T5 sequence (P11712 whole entry): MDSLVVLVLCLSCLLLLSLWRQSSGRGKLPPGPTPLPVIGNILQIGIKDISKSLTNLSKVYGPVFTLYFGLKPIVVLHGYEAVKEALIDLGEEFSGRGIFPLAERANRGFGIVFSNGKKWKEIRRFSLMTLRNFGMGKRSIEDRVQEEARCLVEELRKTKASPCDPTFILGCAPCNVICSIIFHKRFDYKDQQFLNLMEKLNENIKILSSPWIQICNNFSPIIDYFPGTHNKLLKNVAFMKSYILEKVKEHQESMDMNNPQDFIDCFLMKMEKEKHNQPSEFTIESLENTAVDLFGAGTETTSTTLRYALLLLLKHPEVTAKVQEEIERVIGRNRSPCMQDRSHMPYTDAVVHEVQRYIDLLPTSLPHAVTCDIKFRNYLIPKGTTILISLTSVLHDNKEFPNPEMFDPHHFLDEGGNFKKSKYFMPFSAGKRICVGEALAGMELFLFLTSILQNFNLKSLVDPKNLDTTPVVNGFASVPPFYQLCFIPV

human CYP2C19 [6] = target: T3, human CYP2C19; experiment: biochemical; details: for IC50: CYP2C19 IC50 (half-maximal inhibitory concentration)
human CYP1A2 [7] = target: T2, human CYP1A2; experiment: biochemical; details: CYP1A2 IC50 (half-maximal inhibitory concentration)
CYP3A4 [8] = target: T1, CYP3A4
human CYP2D6 [9] = target: T4, human CYP2D6; experiment: biochemical; details: CYP2D6 IC50 (half-maximal inhibitory concentration)
human CYP2C9 [10] = target: T5, human CYP2C9; details: human
[11] = target: Photinus pyralis (firefly) luciferase (Photinus pyralis, UniProt P08659); experiment: biochemical; assay type: biochemical
Chain of Photinus pyralis (firefly) luciferase (P08659 whole entry): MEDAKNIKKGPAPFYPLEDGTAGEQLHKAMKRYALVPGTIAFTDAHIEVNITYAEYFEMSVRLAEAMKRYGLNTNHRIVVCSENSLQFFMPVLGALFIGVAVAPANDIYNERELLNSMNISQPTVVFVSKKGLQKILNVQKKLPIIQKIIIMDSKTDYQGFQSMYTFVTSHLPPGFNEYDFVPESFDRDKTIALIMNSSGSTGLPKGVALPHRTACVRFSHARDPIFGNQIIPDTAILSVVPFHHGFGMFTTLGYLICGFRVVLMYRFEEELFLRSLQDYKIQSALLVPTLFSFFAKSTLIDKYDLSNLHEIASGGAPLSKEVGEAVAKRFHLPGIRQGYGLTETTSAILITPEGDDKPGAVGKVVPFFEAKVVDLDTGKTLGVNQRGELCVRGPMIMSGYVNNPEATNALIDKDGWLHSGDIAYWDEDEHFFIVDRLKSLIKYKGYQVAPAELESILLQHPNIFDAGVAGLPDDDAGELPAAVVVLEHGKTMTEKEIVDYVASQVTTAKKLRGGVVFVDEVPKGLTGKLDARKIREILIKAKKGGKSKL

[12] = CYP3A4 AC50 (half-maximal activity concentration)
[13] = CYP2C9 AC50 (half-maximal activity concentration)

T1 sequence (P08684 whole entry): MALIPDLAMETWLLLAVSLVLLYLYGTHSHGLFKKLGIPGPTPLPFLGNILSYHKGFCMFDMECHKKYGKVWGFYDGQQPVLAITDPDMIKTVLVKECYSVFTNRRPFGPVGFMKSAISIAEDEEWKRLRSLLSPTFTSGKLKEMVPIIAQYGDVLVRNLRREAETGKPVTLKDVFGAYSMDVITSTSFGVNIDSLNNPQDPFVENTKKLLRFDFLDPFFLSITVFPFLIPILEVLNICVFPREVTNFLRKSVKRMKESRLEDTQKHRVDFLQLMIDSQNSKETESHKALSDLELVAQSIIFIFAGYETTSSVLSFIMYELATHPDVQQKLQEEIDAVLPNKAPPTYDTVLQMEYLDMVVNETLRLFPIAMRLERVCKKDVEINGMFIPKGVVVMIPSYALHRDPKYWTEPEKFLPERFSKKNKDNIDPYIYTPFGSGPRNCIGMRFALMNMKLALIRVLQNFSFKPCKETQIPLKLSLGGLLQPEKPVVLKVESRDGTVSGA

| SMILES | AC50 (CYP3A4 [1]; [12]) | CYP1A2 AC50 (half-maximal activity concentration) (human CYP1A2 [2]) | CYP2C19 AC50 (half-maximal activity concentration) (human CYP2C19 [3]) | CYP2D6 AC50 (half-maximal activity concentration) (human CYP2D6 [4]) | AC50 (human CYP2C9 [5]; [13]) | also measured |
| --- | --- | --- | --- | --- | --- | --- |
| Clc1ccccc1-c1ccccc1Cl [2,2'-Dichlorobiphenyl] | 14.6 µM | Inconclusive inhibitor | Inconclusive activator | Inactive | 39 µM | – |
| CC(=O)OC(c1ccccc1)C(Cl)(Cl)Cl (stereo not drawn) [2,2,2-Trichloro-1-phenylethyl acetate] | – | Inactive | – | Inactive | – | AC50 (human CYP2C19 [6]): 35.6 µM; AC50 (CYP3A4 [1]): 23.9 µM; AC50 (human CYP2C9 [5]): 71.3 µM |
| CC(Oc1cc(Cl)c(Cl)cc1Cl)C(=O)O (stereo not drawn) [2-(2,4,5-Trichlorophenoxy)propionic acid] | 76.9 µM | Inactive | Inactive | Inactive | 28.4 µM | – |
| O=C(O)c1cc(Cl)cc(Cl)c1O [3,5-Dichlorosalicylic acid] | – | Inconclusive inhibitor | Inactive | Inactive | – | AC50 (CYP3A4 [1]): 37 µM; AC50 (human CYP2C9 [5]): 28.3 µM |
| N#Cc1cc(Br)c(O)c(Br)c1 [Bromoxynil] | 29.6 µM | Inactive | Inactive | Inactive | 18.7 µM | – |
| Cc1ccc(S(=O)(=O)NCl)cc1 [Chloramine-T trihydrate] | 67.9 µM | Inconclusive inhibitor | Inconclusive inhibitor | Inactive | 81.6 µM | – |
| CC(=O)OCC(=O)[C@@]12N=C(C)O[C@@H]1C[C@H]1[C@@H]3CCC4=CC(=O)C=C[C@]4(C)[C@H]3[C@@H](O)C[C@@]12C [Deflazacort] | 13.2 µM | Inactive | Inactive | Inactive | 60.9 µM | – |
| CCC(=O)Oc1ccc(/C(CC)=C(\CC)c2ccc(OC(=O)CC)cc2)cc1 [Diethylstilbestrol dipropionate] | 22.9 µM | Inactive | Inactive | Inactive | 21.2 µM | – |
| CC(=O)OCC(=O)[C@@]1(OC(C)=O)[C@@H](C)C[C@H]2[C@@H]3C[C@H](F)C4=CC(=O)C=C[C@]4(C)[C@@]3(F)[C@@H](O)C[C@@]21C [Diflorasone diacetate] | 4.74 µM | Inactive | Inconclusive activator | Inactive | 19 µM | – |
| CC(C)COC(=O)CCCCC(=O)OCC(C)C [Diisobutyl adipate] | – | Inconclusive inhibitor | Inactive | Inactive | – | AC50 (CYP3A4 [1]): 11.7 µM; AC50 (human CYP2C9 [5]): 38 µM |
| CN(C(=O)C(Cl)Cl)c1ccc(OC(=O)c2ccco2)cc1 [Diloxanide furoate] | 25.3 µM | Inactive | Inconclusive inhibitor | Inconclusive | 15.5 µM | – |
| O=C(NC(=O)c1c(F)cccc1F)Nc1ccc(Oc2ccc(C(F)(F)F)cc2Cl)cc1F [Flufenoxuron] | 18.6 µM | Inactive | Inconclusive | Inactive | 17.8 µM | – |
| Cc1ccc(Cl)c(Nc2ccccc2C(=O)O)c1Cl [Meclofenamate sodium] | 38.9 µM | Inactive | Inactive | Inconclusive inhibitor | 24.2 µM | – |
| Cc1cccc(Nc2ccccc2C(=O)O)c1C [Mefenamic acid] | 73.9 µM | Inconclusive inhibitor | Inconclusive inhibitor | Inactive | 33 µM | – |
| C[C@]12C=CC(=O)C=C1CC[C@@H]1[C@@H]2CC[C@@]2(C)[C@H]1CC[C@]2(C)O [Methandrostenolone] | 2.65 µM | Inactive | Inactive | Inactive | 34.7 µM | – |
| O=C(O)C(F)(F)C(F)(F)C(F)(F)C(F)(F)C(F)(F)C(F)(F)F [Perfluoroheptanoic acid] | 65.8 µM | Inactive | Inactive | Inactive | 6.33 µM | – |
| O=C(O)c1ccccc1C(c1ccc(O)cc1)c1ccc(O)cc1 [Phenolphthalin] | 30.1 µM | Inconclusive inhibitor | Inactive | Inactive | 56.6 µM | – |
| C[C@@H]1O[C@@H](O[C@@H]2C=C3CC[C@@H]4[C@H](CC[C@]5(C)[C@@H](c6ccc(=O)oc6)CC[C@]45O)[C@@]3(C)CC2)[C@H](O)[C@H](O)[C@H]1O [Proscillaridin] | 33.4 µM | Inactive | Inconclusive activator | Inactive | – | – |
| Fc1ccc(Oc2ccnc3cc(Cl)cc(Cl)c23)cc1 [Quinoxyfen] | – | – | – | – | – | IC50 (human CYP1A2 [7]): 0.53 µM; IC50 (human CYP2C19 [6]): 13.3 µM; CYP1A2 Efficacy (in parenthesis) (human CYP1A2 [2]): 0.53 ± 0.32 (-98 ± 2) %; CYP2C19 Efficacy (in parenthesis) (human CYP2C19 [3]): 13.35 ± 5.76 (-134 ± 20) %; CYP2D6 Efficacy (in parenthesis) (human CYP2D6 [4]): 37.02 ± 2.51 (-71 ± 14) %; CYP3A4 IC50 (half-maximal inhibitory concentration) (CYP3A4 [8]): Inactive; IC50 (human CYP2C9 [5]): 23.2 µM; IC50 (human CYP2D6 [9]): 37 µM; CYP2C9 Efficacy (in parenthesis) (human CYP2C9 [10]): 23.18 ± 7.46 (-103 ± 2) %; IC50 [11]: 59.2 µM |
| Cc1c(C(=O)NN2CCCCC2)nn(-c2ccc(Cl)cc2Cl)c1-c1ccc(Cl)cc1 [Rimonabant] | – | Inactive | – | – | – | AC50 (CYP3A4 [1]): 4.96 ± 0.93 µM |
| CCCCCCCCCCOS(=O)(=O)O [Sodium decyl sulfate] | – | Inactive | Inactive | Inconclusive inhibitor | – | AC50 (CYP3A4 [1]): 85.8 µM; AC50 (human CYP2C9 [5]): 38.5 µM |
| O=C(O)Cc1cc(I)c(Oc2cc(I)c(O)c(I)c2)c(I)c1 [Tetrac] | – | Inactive | Inactive | Inactive | – | AC50 (CYP3A4 [1]): 9.83 µM; AC50 (human CYP2C9 [5]): 46.5 µM |
| O=S(=O)(c1ccc(Cl)cc1)c1cc(Cl)c(Cl)cc1Cl [Tetradifon] | – | – | – | – | – | IC50 (human CYP1A2 [7]): 31.9 µM; IC50 (human CYP2C19 [6]): 0.27 µM; CYP1A2 Efficacy (in parenthesis) (human CYP1A2 [2]): 31.85 ± 3.66 (-38 ± 3) %; CYP2C19 Efficacy (in parenthesis) (human CYP2C19 [3]): 0.27 ± 0.02 (-131 ± 10) %; CYP2D6 Efficacy (in parenthesis) (human CYP2D6 [4]): 49.42 ± 19.58 (-34 ± 2) %; CYP3A4 IC50 (half-maximal inhibitory concentration) (CYP3A4 [8]): Inactive; IC50 (human CYP2C9 [5]): 28.3 µM; IC50 (human CYP2D6 [9]): 49.4 µM; CYP2C9 Efficacy (in parenthesis) (human CYP2C9 [10]): 28.26 ± 0 (-59 ± 2) %; Luciferase IC50 (half-maximal inhibitory concentration) [11]: Inactive |
| CC[C@H]1OC(=O)[C@H](C)[C@@H](O[C@H]2C[C@@](C)(OC)[C@@H](O)[C@H](C)O2)[C@H](C)[C@@H](O[C@@H]2O[C@H](C)C[C@H](N(C)C)[C@H]2O)[C@](C)(O)C[C@@H](C)C(=O)[C@H](C)[C@@H](O)[C@]1(C)O [erythromycin, reference compound] | – | – | – | – | – | IC50 (CYP3A4 [1]; IC50 CYP3A4 assay): 0.3 µM |
| Clc1ccc(C(c2ccc(Cl)cc2)C(Cl)Cl)cc1 [p,p'-DDD] | – | – | – | – | – | IC50 (human CYP1A2 [7]): 6.46 µM; IC50 (human CYP2C19 [6]): 0.12 µM; CYP1A2 Efficacy (in parenthesis) (human CYP1A2 [2]): 6.46 ± 0.74 (-96 ± 1) %; CYP2C19 Efficacy (in parenthesis) (human CYP2C19 [3]): 0.12 ± 0.06 (-136 ± 7) %; CYP2D6 Efficacy (in parenthesis) (human CYP2D6 [4]): 59 ± 16.44 (-79 ± 23) %; CYP3A4 IC50 (half-maximal inhibitory concentration) (CYP3A4 [8]): Inactive; IC50 (human CYP2C9 [5]): 5.55 µM; IC50 (human CYP2D6 [9]): 59 µM; CYP2C9 Efficacy (in parenthesis) (human CYP2C9 [10]): 5.55 ± 0.76 (-100 ± 3) %; Luciferase IC50 (half-maximal inhibitory concentration) [11]: Inactive |
